We go through 3 compounds from US9120779B2, “Inhibitors of HCV NS5A” (PRESIDIO PHARMACEUTICALS, INC., priority 2008, dated 2015).

The experiment relates to HCV genotype 1b replicon in Huh 7 cells. Put plainly: HCV replicon assay (luciferase readout, 1b_Huh-Luc/Neo-ET cell line). It counts as cell-based. The conditions noted are these: Hepatitis C virus, Huh-7, 72 h, read-out: Inhibition of HCV genotype 1b, Table 5, 72 h incubation. The gist of the method:
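Inhibition expressed as percent of untreated control luciferase signal and fitted to a Hill-slope equation for EC50, with repeat determinations. Compounds were added in triplicate to Huh 7 cells stably expressing the genotype 1b luciferase replicon, with 72 h exposure.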
A general note: Replicon systems follow genome replication, usually without infectious particles.

As to `COC(=O)N[C@H](C(=O)N1CCC[C@H]1c1ncc(-c2ccc(C34CCC(c5cnc([C@@H]6CCCN6C(=O)[C@H](C(C)C)N6CCC(O)CC6)[nH]5)(CC3)CC4)cc2)[nH]1)C(C)C` [compound 2058], the EC50 is less than 1 nM. Regarding `CCC(C)[C@H](NC(=O)OC)C(=O)N1CCC[C@H]1c1ncc(-c2ccc(C34CCC(c5cnc([C@@H]6CCCN6C(=O)[C@@H](NC(=O)OC)C(C)CC)[nH]5)(CC3)CC4)cc2)[nH]1` (stereo partly drawn) [compound 2092], the EC50 is less than 1 nM. Take `CNC(=O)N[C@H](C(=O)N1CCC[C@H]1c1ncc(-c2ccc(C34CCC(c5cnc([C@@H]6CCCN6C(=O)[C@@H](NC(=O)OC)C(C)C)[nH]5)(CC3)CC4)cc2)[nH]1)C(C)C` [compound 2095]: the EC50 is less than 1 nM.
